Assay results reported in US8513423B2 (Janssen Pharmaceutica, NV, priority 2010, dated 2013).
Numbering of substitutions follows the chain as printed. pIC50, pKd: −log10 of the molar value. Like-named read-outs stand apart in the source and are kept apart here.

Experiments:
mutant MGL = molecular target: T1, mutant MGL (Homo sapiens, UniProt Q99685, L169S/L176S); test: MGL ThermoFluor assay - mutant; format: binding
T1 construct: purified mutant MGL (mut-MGLL 11-313 L179S L186S)
T1 sequence (Q99685 1-303 L169S/L176S): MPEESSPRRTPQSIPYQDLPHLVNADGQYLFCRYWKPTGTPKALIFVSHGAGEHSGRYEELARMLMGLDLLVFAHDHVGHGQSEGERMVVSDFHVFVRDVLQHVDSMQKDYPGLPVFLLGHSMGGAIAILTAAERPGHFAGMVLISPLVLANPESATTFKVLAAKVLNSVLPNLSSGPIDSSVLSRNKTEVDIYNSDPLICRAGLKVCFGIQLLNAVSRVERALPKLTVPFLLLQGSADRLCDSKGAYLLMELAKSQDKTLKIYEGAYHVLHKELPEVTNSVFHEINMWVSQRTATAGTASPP
Method: The ThermoFluor (TF) assay is a 384-well plate-based binding assay that measures thermal stability of proteins^1,2. The experiments were carried out using instruments available from Johnson & Johnson Pharmaceutical Research & Development, LLC. TF dye used in all experiments was 1,8-ANS (Invitrogen: A-47). Final TF assay conditions used for MGL studies were 0.07 mg/ml of mutant MGL, 100 μM ANS, 200 mM NaCl, 0.001% Tween-20 in 50 mM PIPES (pH=7.0).
Screening compound plates contained 100% DMSO compound solutions at a single concentration. For follow-up concentration-response studies, compounds were arranged in a pre-dispensed plate (Greiner Bio-one: 781280), wherein compounds were serially diluted in 100% DMSO across 11 columns within a series. Columns 12 and 24 were used as DMSO reference and contained no compound. For both single and multiple compound concentration-repsonse experiments, the compound aliquots (46 nL) were robotically predispensed directly into 384-well black assay plates (Abgene: TF-0384/k) using the Hummingbird liquid handler. Following compound dispension, protein and dye solutions were added to achieve the final assay volume of 3 μL. The assay solutions were overlayed with 1 μl of silicone oil (Fluka, type DC 200: 85411) to prevent evaporation.
Bar-coded assay plates were robotically loaded onto a thermostatically controlled PCR-type thermal block and then heated from 40 to 90° C. degrees at a ramp-rate of 1° C./min for all experiments. Fluorescence was measured by continuous illumination with UV light (Hamamatsu LC6), supplied via fiber optics and filtered through a band-pass filter (380-400 nm; >6 OD cutoff). Fluorescence emission of the entire 384-well plate was detected by measuring light intensity using a CCD camera (Sensys, Roper Scientific) filtered to detect 500±25 nm, resulting in simultaneous and independent readings of all 384 wells. A single image with 20-sec exposure time was collected at each temperature, and the sum of the pixel intensity in a given area of the assay plate was recorded vs temperature and fit to standard equations to yield the Tm^1. • 1. Pantoliano, M. W., Petrella, E. C., Kwasnoski, J. D., Lobanov, V. S., Myslik, J., Graf, E., Carver, T., Asel, E., Springer, B. A., Lane, P., and Salemme, F. R. (2001) J Biomol Screen 6, 429-40. • 2. Matulis, D., Kranz, J. K., Salemme, F. R., and Todd, M. J. (2005) Biochemistry 44, 5258-66.
The Kd values for compounds of Formula (I) were determined from a fit of the equation to the concentration-response plot of the fractional activity as a function of Tm. For some experiments, quantitative NMR spectroscopy (qNMR) was used to measure concentration of the initial 100% DMSO compound solutions and, using the same fitting method, qKd values were determined

[1] = molecular target: T2, purified wild type MGL (wt-MGLL 6H-11-313) (Homo sapiens, UniProt Q99685); test: MGL enzyme activity assay (4MU-B cleavage), wild type MGL; format: biochemical; conditions: 10 μM 4MU-B, 5 nM enzyme, 37° C., read-out: MGL wild type inh IC50
T2 construct: purified wild type MGL (wt-MGLL 6H-11-313)
T2 sequence (Q99685 1-303): T1 sequence (Q99685 1-303 L169S/L176S) with S169L, S176L
Method: All rate-based assays were performed in black 384-well polypropylene PCR microplates (Abgene) in a total volume of 30 μL. Substrate 4-methylumbelliferyl butyrate (4MU-B; Sigma) and either purified mutant MGL (mut-MGLL 11-313 L179S L186S) or purified wild type MGL (wt-MGLL 6H-11-313) were diluted separately into 20 mM PIPES buffer (pH=7.0), containing 150 mM NaCl and 0.001% Tween 20. Compounds of Formula (I) were pre-dispensed (50 nL) into the assay plate using a Cartesian Hummingbird prior to adding 4MU-B (25 μL of 1.2× solution to a final concentration of 10 μM) followed by enzyme (5 μL of a 6× solution to a final concentration of 5 nM) to initiate the reaction. Final compound concentrations ranged from 17 to 0.0003 μM. The fluorescence change due to 4MU-B cleavage was monitored with excitation and emission wavelengths of 335 and 440 nm, respectively, and a bandwidth of 10 nm (Safire^2, Tecan) at 37° C. for 5 min.
The IC50 values for compounds of Formula (I) were determined using Excel from a fit of the equation to the concentration-response plot of the fractional activity as a function of inhibitor concentration.

MGL = molecular target: T3, MGL (Rattus norvegicus, UniProt Q8R431); test: 2-AG accumulation assay in rat brain homogenate; format: biochemical; conditions: compound @1 μM, read-out: Rat Brain 2AG % VehCntrl (%) @1 μM
T3 construct: one g rat brain was homogenized; from tissue; host or cells: rat brain homogenate
T3 sequence (Q8R431 1-303): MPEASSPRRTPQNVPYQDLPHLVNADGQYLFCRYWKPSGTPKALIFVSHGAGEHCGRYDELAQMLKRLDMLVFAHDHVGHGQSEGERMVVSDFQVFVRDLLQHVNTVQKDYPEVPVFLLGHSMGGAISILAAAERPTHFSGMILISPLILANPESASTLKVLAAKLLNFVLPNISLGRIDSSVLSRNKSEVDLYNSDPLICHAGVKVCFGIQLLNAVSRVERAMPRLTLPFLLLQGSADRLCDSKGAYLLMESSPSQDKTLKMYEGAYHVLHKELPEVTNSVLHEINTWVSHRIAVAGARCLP
Method: After a 15-min incubation time at 37° C., CaCl2 (final concentration=10 mM) was added and then incubated for 15 min at 37° C. in a total volume of 5 mL. The reactions were stopped with 6 mL organic solvent extraction solution of 2:1 chloroform/methanol. Accumulated 2-AG in the organic phase was measured by a HPLC/MS method, according to the following equation: percent vehicle=(2-AG accumulation in the presence of compound/2-AG accumulation in vehicle)×100.

[2] = 0.07 mg/ml mutant MGL, pH=7.0, read-out: MGL mutant ThermoFluor Kd
[3] = compound concentration measured by qNMR, read-out: MGL mutant ThermoFluor qKd (using qNMR conc.)

pKd (mutant MGL; [2]) | pIC50 [1] | 2-AG accumulation, percent of vehicle control at 1 µM (MGL) [%] | pKd (mutant MGL; [3]) | SMILES
7.54 | 7.91 | 287 |  | O=C(c1ccc[nH]1)N1CCC(C2CN(C(=O)c3ccc(-c4ccccc4)cc3F)C2)CC1 [Cpd 21, 4-{1-[(3-Fluorobiphenyl-4-yl)carbonyl]azetidin-3-yl}-1-(1H-pyrrol-2-ylcarbonyl)piperidine]
 | > 8.30 | 107 | 7.67 | O=C(c1ccc2c(ccn2-c2ccc(F)c(F)c2)c1)N1CC(C2CCN(C(=O)c3ccc[nH]3)CC2)C1 [Cpd 44]
 | 7.72 | 889 | 8.17 | O=C(c1ccc2nc(-c3ccccc3)oc2c1)N1CCC(C2CN(C(=O)c3nccs3)C2)CC1 [Cpd 66, 2-Phenyl-6-({4-[1-(1,3-thiazol-2-ylcarbonyl)azetidin-3-yl]piperidin-1-yl}carbonyl)-1,3-benzoxazole]
 | 7.94 | 731 | 8.08 | O=C(c1ccc2c(ccn2-c2ccc(C(F)(F)F)cc2)c1)N1CCC(C2CN(C(=O)c3cscn3)C2)CC1 [Cpd 76, 5-({4-[1(1,3-Thiazol-4-ylcarbonyl)azetidin-3-yl]piperidin-1-yl}carbonyl)-1-[4-(trifluoromethyl)phenyl]-1H-indole]
 | > 8.30 | 266 | 7.74 | O=C(c1cccc(-c2cccc(F)c2)c1)N1CCC(C2CN(C(=O)c3nccs3)C2)CC1 [Cpd 51, 1-[(3′-Fluorobiphenyl-3-yl)carbonyl]-4-[1-(1,3-thiazol-2-ylcarbonyl)azetidin-3-yl]piperidine]
 | > 8.30 | 611 | 7.58 | O=C(c1ccc2c(ccn2-c2ccc(C(F)(F)F)cc2)c1)N1CC(C2CCN(C(=O)c3ccc[nH]3)CC2)C1 [Cpd 43, 5-({3-[1-(1H-Pyrrol-2-ylcarbonyl)piperidin-4-yl]azetidin-1-yl}carbonyl)-1-[4-(trifluoromethyl)phenyl]-1H-indole]
8.70 | 8.15 | 493 |  | O=C(c1ccc(-c2cccc(C(F)(F)F)c2)cc1)N1CC(C2CCN(C(=O)c3nccs3)CC2)C1 [Cpd 16, 1-(1,3-Thiazol-2-ylcarbonyl)-4-(1-{[3′-(trifluoromethyl)biphenyl-4-yl]carbonyl}azetidin-3-yl)piperidine]
7.88 | 8.05 | 634 |  | O=C(c1ccc(Cc2ccc(C(F)(F)F)cc2)cc1)N1CC(C2CCN(C(=O)c3nccs3)CC2)C1 [Cpd 27, 1-(1,3-Thiazol-2-ylcarbonyl)-4-[1-({4-[4-(trifluoromethyl)benzyl]phenyl}carbonyl)azetidin-3-yl]piperidine]
 | 8.05 | 946 | 8.48 | O=C(c1ccc2c(ccn2-c2ccc(F)c(F)c2)c1)N1CCC(C2CN(C(=O)c3cscn3)C2)CC1 [Cpd 79, 1-(3,4-Difluorophenyl)-5-({4-[1-(1,3-thiazol-4-ylcarbonyl)azetidin-3-yl]piperidin-1-yl}carbonyl)-1H-indole]
7.96 | 7.81 | 194 |  | O=C(c1ccc(-c2cccc(C(F)(F)F)c2)cc1)N1CC(C2CCN(C(=O)c3cscn3)CC2)C1 [Cpd 10, 1-(1,3-Thiazol-4-ylcarbonyl)-4-(1-{[3′-(trifluoromethyl)biphenyl-4-yl]carbonyl}azetidin-3-yl)piperidine]
7.52 | 7.15 | 193 | 7.49 | O=C(c1cccc(-c2cccc(F)c2)c1)N1CCC(C2CN(C(=O)c3cscn3)C2)CC1 [Cpd 52, 1-[(3′-Fluorobiphenyl-3-yl)carbonyl]-4-[1-(1,3-thiazol-4-ylcarbonyl)azetidin-3-yl]piperidine]
7.00 | 7.76 | 184 |  | O=C(c1cccc(-c2cccc(F)c2)c1)N1CC(C2CCN(C(=O)c3nccs3)CC2)C1 [Cpd 17, 4-{1-[(3′-Fluorobiphenyl-3-yl)carbonyl]azetidin-3-yl}-1-(1,3-thiazol-2-ylcarbonyl)piperidine]
8.05 | > 8.30 | 559 |  | O=C(c1ccc(Cc2cccc(C(F)(F)F)c2)cc1)N1CC(C2CCN(C(=O)c3nccs3)CC2)C1 [Cpd 19, 1-(1,3-Thiazol-2-ylcarbonyl)-4-[1-({4-[3-(trifluoromethyl)benzyl]phenyl}carbonyl)azetidin-3-yl]piperidine]
 | 7.89 | 733 | 8.70 | O=C(c1ccc(-c2ccc(C(F)(F)F)s2)cc1)N1CCC(C2CN(C(=O)c3cscn3)C2)CC1 [Cpd 55, 4-[1-(1,3-Thiazol-4-ylcarbonyl)azetidin-3-yl]-1-({4-[5-(trifluoromethyl)thiophen-2-yl]phenyl}carbonyl)piperidine]
8.26 | > 8.30 | 285 | 8.48 | O=C(c1ccc(-c2ccc(C(F)(F)F)s2)cc1)N1CCC(C2CN(C(=O)c3ccc[nH]3)C2)CC1 [Cpd 56, 4-[1-(1H-Pyrrol-2-ylcarbonyl)azetidin-3-yl]-1-({4-[5-(trifluoromethyl)thiophen-2-yl]phenyl}carbonyl)piperidine]
